{"source": "patent US11072614B2", "about": "“Polymorphs of sepiapterin and salts thereof” (PTC Therapeutics MP, Inc., priority 2016, dated 2021)", "type_in_all_cases": "physicochemical", "key": {"[1]": {"assay": "Storage stability study of solid forms, form change by XRD (Example 11)", "details": "10% RH", "method": "For X-ray powder diffraction analysis, a PANalytical Empyrean X-ray powder diffractometer was used. The parameters are as follows:\n(§1) Form A and F samples were placed in chambers with silica gel to remove water (the relative humidity was measured to be ˜10% RH) at different temperatures. Form D samples were placed in chambers with water (relative humidity was estimated to be ˜100% RH) at different temperatures.\n(§2) The HPLC purities and XRD patterns were obtained for each of Form A/F/D samples stored at various temperatures."}, "[2]": {"assay": "Physical form stability to grinding and sieving (XRD before and after)", "method": "A sample of sepiapterin free base was obtained commercially. […] The sepiapterin sample contained particles with an average particle size over 100 μm. The XRD pattern was determined before and after grinding to reduce the particle size such that it passes through a 140 mesh screen. This polymorph of sepiapterin free base is referred to as Form A herein."}, "[3]": {"assay": "Storage stability study of solid forms, HPLC purity (Example 11)", "details": "10% RH", "method": "as §1, §2"}, "[4]": {"assay": "Storage stability of polymorphs, HPLC sepiapterin and impurity profile (Example 12)", "set-up": "Impurity RRT 1.06 / Impurity RRT 1.08 / Impurity RRT 1.17 / Impurity RRT 1.21 / Impurity RRT 1.25 / Impurity RRT 0.62 / Impurity RRT 0.89 / Impurity RRT 0.95 / Impurity RRT 0.60: unit not given here", "method": "Samples of sepiapterin free base polymorph Forms D, F, and A were stored at room temperature (RT), 35° C., and 50° C. The samples were analyzed by HPLC at 1 week and 4 week intervals. The HPLC parameters were as follows: [table]"}, "[5]": {"details": "35° C./10% RH, 1 w, listed as Polymorph F"}, "[6]": {"details": "35° C./10% RH, 4 w, listed as Polymorph F"}, "[7]": {"details": "50° C./10% RH, 1 w, listed as Polymorph F"}, "[8]": {"details": "50° C./10% RH, 4 w, listed as Polymorph F"}, "[9]": {"details": "RT/10% RH, 1 w, listed as Polymorph F"}, "[10]": {"details": "RT/10% RH, 4 w, listed as Polymorph F"}}, "data": [{"molecule": "C[C@H](O)C(=O)C1=Nc2c(nc(N)[nH]c2=O)NC1", "note": "[Form F, sepiapterin]", "values": [{"measurement": "Form change", "setting": "[1]; 35° C., storage 1 week", "result": "No"}, {"measurement": "Form change", "setting": "[1]; 35° C., storage 4 weeks", "result": "No"}, {"measurement": "Form change", "setting": "[1]; 50° C., storage 1 week", "result": "No"}, {"measurement": "Form change", "setting": "[1]; 50° C., storage 4 weeks", "result": "No"}, {"measurement": "Form change", "setting": "[1]; RT, storage 1 week", "result": "No"}, {"measurement": "Form change", "setting": "[1]; RT, storage 4 weeks", "result": "No"}, {"measurement": "physical form stability to grinding and sieving", "setting": "[2]", "result": "confirms the stability"}, {"measurement": "% of Initial", "setting": "[3]; 35° C., storage 1 week", "result": 99.7, "unit": "%"}, {"measurement": "Purity (area %)", "setting": "[3]; 35° C., storage 1 week", "result": 99.4, "unit": "area %"}, {"measurement": "% of Initial", "setting": "[3]; 35° C., storage 4 weeks", "result": 99.7, "unit": "%"}, {"measurement": "Purity (area %)", "setting": "[3]; 35° C., storage 4 weeks", "result": 99.4, "unit": "area %"}, {"measurement": "% of Initial", "setting": "[3]; 50° C., storage 1 week", "result": 99.4, "unit": "%"}, {"measurement": "Purity (area %)", "setting": "[3]; 50° C., storage 1 week", "result": 99.2, "unit": "area %"}, {"measurement": "% of Initial", "setting": "[3]; 50° C., storage 4 weeks", "result": 99.1, "unit": "%"}, {"measurement": "Purity (area %)", "setting": "[3]; 50° C., storage 4 weeks", "result": 98.9, "unit": "area %"}, {"measurement": "% of Initial", "setting": "[3]; RT, storage 1 week", "result": 99.7, "unit": "%"}, {"measurement": "Purity (area %)", "setting": "[3]; RT, storage 1 week", "result": 99.4, "unit": "area %"}, {"measurement": "% of Initial", "setting": "[3]; RT, storage 4 weeks", "result": 99.8, "unit": "%"}, {"measurement": "Purity (area %)", "setting": "[3]; RT, storage 4 weeks", "result": 99.5, "unit": "area %"}, {"measurement": "Impurity RRT 0.60", "setting": "[4]; 35° C./10% RH, 1 w", "result": "<0.05"}, {"measurement": "Impurity RRT 0.95", "setting": "[4]; [5]", "result": 0.35}, {"measurement": "Impurity RRT 1.08", "setting": "[4]; [5]", "result": 0.06}, {"measurement": "Impurity RRT 1.17", "setting": "[4]; [5]", "result": 0.15}, {"measurement": "Sepiapterin RRT 1.00 (amount of sepiapterin)", "setting": "[4]; [5]", "result": 99.43, "unit": "%"}, {"measurement": "Impurity RRT 0.60", "setting": "[4]; 35° C./10% RH, 4 w", "result": "<0.05"}, {"measurement": "Impurity RRT 1.08", "setting": "[4]; 35° C./10% RH, 4 w", "result": "<0.05"}, {"measurement": "Impurity RRT 0.95", "setting": "[4]; [6]", "result": 0.42}, {"measurement": "Impurity RRT 1.17", "setting": "[4]; [6]", "result": 0.15}, {"measurement": "Sepiapterin RRT 1.00 (amount of sepiapterin)", "setting": "[4]; [6]", "result": 99.43, "unit": "%"}, {"measurement": "Impurity RRT 0.60", "setting": "[4]; 50° C./10% RH, 1 w", "result": "<0.05"}, {"measurement": "Impurity RRT 0.95", "setting": "[4]; [7]", "result": 0.58}, {"measurement": "Impurity RRT 1.08", "setting": "[4]; [7]", "result": 0.11}, {"measurement": "Impurity RRT 1.17", "setting": "[4]; [7]", "result": 0.15}, {"measurement": "Sepiapterin RRT 1.00 (amount of sepiapterin)", "setting": "[4]; [7]", "result": 99.15, "unit": "%"}, {"measurement": "Impurity RRT 0.60", "setting": "[4]; 50° C./10% RH, 4 w", "result": 0.12}, {"measurement": "Impurity RRT 1.17", "setting": "[4]; 50° C./10% RH, 4 w", "result": 0.17}, {"measurement": "Impurity RRT 0.95", "setting": "[4]; [8]", "result": 0.86}, {"measurement": "Impurity RRT 1.08", "setting": "[4]; [8]", "result": "<0.05"}, {"measurement": "Sepiapterin RRT 1.00 (amount of sepiapterin)", "setting": "[4]; [8]", "result": 98.85, "unit": "%"}, {"measurement": "Sepiapterin RRT 1.00 (amount of sepiapterin)", "setting": "[4]; 50° C./10% RH, 4 w, listed as polymorph F", "result": 98.85, "unit": "%"}, {"measurement": "Impurity RRT 0.60", "setting": "[4]; Initial", "result": "<0.05"}, {"measurement": "Impurity RRT 1.08", "setting": "[4]; Initial", "result": "<0.05"}, {"measurement": "Impurity RRT 1.17", "setting": "[4]; Initial", "result": 0.17}, {"measurement": "Impurity RRT 0.95", "setting": "[4]; Initial, listed as Polymorph F", "result": 0.09}, {"measurement": "Sepiapterin RRT 1.00 (amount of sepiapterin)", "setting": "[4]; Initial, listed as Polymorph F", "result": 99.74, "unit": "%"}, {"measurement": "Sepiapterin RRT 1.00 (amount of sepiapterin)", "setting": "[4]; Initial, listed as polymorph F", "result": 99.74, "unit": "%"}, {"measurement": "Impurity RRT 0.60", "setting": "[4]; RT/10% RH, 1 w", "result": "<0.05"}, {"measurement": "Impurity RRT 1.17", "setting": "[4]; RT/10% RH, 1 w", "result": 0.16}, {"measurement": "Impurity RRT 0.95", "setting": "[4]; [9]", "result": 0.29}, {"measurement": "Impurity RRT 1.08", "setting": "[4]; [9]", "result": 0.14}, {"measurement": "Sepiapterin RRT 1.00 (amount of sepiapterin)", "setting": "[4]; [9]", "result": 99.42, "unit": "%"}, {"measurement": "Impurity RRT 0.60", "setting": "[4]; RT/10% RH, 4 w", "result": "<0.05"}, {"measurement": "Impurity RRT 1.08", "setting": "[4]; RT/10% RH, 4 w", "result": "<0.05"}, {"measurement": "Impurity RRT 1.17", "setting": "[4]; RT/10% RH, 4 w", "result": 0.16}, {"measurement": "Impurity RRT 0.95", "setting": "[4]; [10]", "result": 0.30}, {"measurement": "Sepiapterin RRT 1.00 (amount of sepiapterin)", "setting": "[4]; [10]", "result": 99.54, "unit": "%"}, {"measurement": "stability compared with polymorph A (in words)", "setting": "[4]; storage at RT, 35° C., 50° C., 1 w and 4 w", "result": "significantly greater stability"}]}]}
